Earlier results in patent US20060078583A1, “Device for delivering an anti-microbial composition” (priority 2004, published 2006).

Tests used:
rhinovirus = details: on skin
[1] = tested on: rhinoviral infections (colds); details: subjects who used iodine products

Structure (SMILES): II [iodine]
- residual anti-rhinoviral activity (rhinovirus): provides residual anti-rhinoviral activity on skin
- number of colds versus placebo users [1]: significantly fewer colds than placebo users
